Reference: patent US6683090B1 (priority 1999, dated 2004)

Biological target: α7 nAChR subtype (Rattus norvegicus, UniProt Q05941)
Format: binding
Settings: read-out: KD of radioligand

Sequence of α7 nAChR subtype (Q05941 23-502 limits assumed): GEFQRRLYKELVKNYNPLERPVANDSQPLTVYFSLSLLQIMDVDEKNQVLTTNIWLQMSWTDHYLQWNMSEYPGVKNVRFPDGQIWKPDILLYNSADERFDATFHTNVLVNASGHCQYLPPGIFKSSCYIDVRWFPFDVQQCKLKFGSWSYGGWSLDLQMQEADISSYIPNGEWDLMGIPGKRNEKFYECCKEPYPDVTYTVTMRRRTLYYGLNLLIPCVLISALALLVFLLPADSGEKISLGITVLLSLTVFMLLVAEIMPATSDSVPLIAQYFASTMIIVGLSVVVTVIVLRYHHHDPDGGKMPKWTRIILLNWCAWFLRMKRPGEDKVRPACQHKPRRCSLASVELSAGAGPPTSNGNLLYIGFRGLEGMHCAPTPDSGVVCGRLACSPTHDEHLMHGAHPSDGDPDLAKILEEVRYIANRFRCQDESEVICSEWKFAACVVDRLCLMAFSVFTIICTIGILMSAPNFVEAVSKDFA

125I-α-Bungarotoxin [^125I-α-BTX] gave a Kd of 1.67 nM.
